Legend:
Assay type in all cases: in vivo, human
[1] = Low-Caffeine User Clinical Study, Profile of Mood States (POMS) survey; settings: low-caffeine users
Description: This study included subjective (POMS and product questions) and objective (CNSVS) tests.

[2] = Moderate-Caffeine User Follow-Up, Profile of Mood States (POMS) survey; set-up: Fatigue / Vigor / Confusion / TMD / Tension / Esteem-related Affect: scale not given here; settings: moderate-caffeine users; for TMD: total mood disturbance
Description: (§1) The study included subjective tests (POMS and product questions) only. […] There were 7 male and 6 female participants with an average age of 39.5 years.

[3] = Moderate-Caffeine User Follow-Up, product questions (statement agreement)
Description: as §1

[4] = Moderate-Dose Caffeine Cohort (mean 338 mg/d), n = 12-13
[5] = Statement Agreement, Moderate-Dose Caffeine Cohort (mean 338 mg/d), n = 12-13

Compound: Cn1c(=O)c2c(ncn2C)n(C)c1=O [Caffeine, caffeine]
- Anger ([1]; n = 30, Post): 0.90
- Confusion ([1]; n = 30, Post): 1.20
- Depression ([1]; n = 30, Post): 0.60
- Esteem-related Affect ([1]; n = 30, Post): 14.63
- Fatigue ([1]; n = 30, Post): 2.77
- Tension ([1]; n = 30, Post): 2.80
- Vigor ([1]; n = 30, Post): 7.27
- Anger ([1]; n = 30, Pre): 1.55
- Confusion ([1]; n = 30, Pre): 2.93
- Depression ([1]; n = 30, Pre): 1.79
- Esteem-related Affect ([1]; n = 30, Pre): 13.59
- Fatigue ([1]; n = 30, Pre): 5.66
- Tension ([1]; n = 30, Pre): 4.48
- Vigor ([1]; n = 30, Pre): 5.69
- TMD ([1]; total mood disturbance, n = 30, Post): −13.63
- Confusion ([2]; n = 12-13, Post): 1.17 ± 2.92
- Depression ([2]; n = 12-13, Post): 1.17 ± 4.04
- Esteem-related Affect ([2]; n = 12-13, Post): 15.92 ± 3.15
- Fatigue ([2]; n = 12-13, Post): 2.25 ± 3.02
- Tension ([2]; n = 12-13, Post): 1.83 ± 3.54
- Fatigue ([2]; n = 12-13, Post, listed as caffeine): did not relieve
- Confusion ([2]; n = 12-13, Pre): 2.25 ± 2.38
- Depression ([2]; n = 12-13, Pre): 1.50 ± 3.45
- Esteem-related Affect ([2]; n = 12-13, Pre): 14.42 ± 3.23
- Fatigue ([2]; n = 12-13, Pre): 5.58 ± 4.70
- Tension ([2]; n = 12-13, Pre): 3.00 ± 2.73
- Vigor ([2]; n = 12-13, Pre): 4.25 ± 2.93
- TMD ([2]; n = 12-13, Post): −17.17 ± 17.69
- TMD ([2]; n = 12-13, Pre): −4.92 ± 13.92
- I am in a better mood after having taken the product, % Top 2 Box [3, 4]: 42%
- I had no trouble recalling [things] after taking the product, % Top 2 Box [3, 4]: 58%
- I was better able to focus after taking the product, % Top 2 Box [3, 4]: 58%
- I was more alert after taking the product, % Top 2 Box [3, 4]: 58%
- The product enhanced my ability to pay attention, % Top 2 Box [3, 4]: 58%
- The product improved my energy levels, % Top 2 Box [3, 4]: 67%
- I am in a better mood after having taken the product, Scores [3, 5]: 3.33
- I had no trouble recalling [things] after taking the product, Scores [3, 5]: 3.67
- I was better able to focus after taking the product, Scores [3, 5]: 3.25
- I was more alert after taking the product, Scores [3, 5]: 3.67
- The product enhanced my ability to pay attention, Scores [3, 5]: 3.50
- The product improved my energy levels, Scores [3, 5]: 3.75
- performance of treatment arms among those with moderate caffeine intake ([3]; moderate-caffeine users): performed better

— US20250352600A1, “DIETARY SUPPLEMENTS FOR BRAIN HEALTH” (Melaleuca, Inc., priority 2024, published 2025)
